Patent publication US20260144802A1, “POST-OPERATIVE DELIRIUM SUPPRESSANT” (priority 2022, published 2026)

Experiments:
[1] = tested on: post-operative delirium model rats; experiment: Trace memory conditioning test (trace memory test and context memory test) in aged post-operative delirium model rats; assay type: in vivo, rat; settings: SD male elderly rats with laparotomy, 10 mg/kg intraperitoneally immediately after surgery, vs laparotomy+solvent
Source text: (§1) Forty (40) SD male elderly rats of 19 to 24 months of age were randomly divided into a control group, an ALLO administration group, a laparotomy+solvent administration group, and a laparotomy+ALLO administration group by 10 rats.
Rats in the laparotomy+solvent administration group and the laparotomy+ALLO administration group were anesthetized with 1.5 to 2.0% isoflurane, and then underwent a median incision of 2 cm in the abdomen. The small intestine was pulled out by about 5 cm from the laparotomy site and extended with a finger for 3 minutes. Next, the abdomen was closed, and local infiltration anesthesia was applied to the wound with 0.2% ropivacaine for post-operative pain. To rats in the laparotomy+ALLO administration group, 10 mg/kg of brexanolone was intraperitoneally administered immediately after surgery. To rats in the laparotomy+solvent administration group, only the same amount of solvent was administered instead of brexanolone. […]
Twelve (12) hours after acquisition of memory of stimulation, a “trace memory test” was performed. Specifically, “only sound stimulation” was performed under different gauges, and freezing behavior at that time was measured.
Finally, 4 hours after the trace memory test, rats were placed under a cage similar to the initial memory acquisition cage and freezing behavior of the rats without stimulation was measured as a “context memory test”.

IL-1β mRNA = IL-1β mRNA expression in the hippocampus by RT-PCR after laparotomy; assay type: in vivo, rat; settings: Example 4, 12 hours after surgery, vs laparotomy+solvent, FIG. 5
Protocol: as §1
Rats in the laparotomy group were subjected to laparotomy in the same manner as in Example 1. To rats in the laparotomy+ALLO administration group, 10 mg/kg of brexanolone was intraperitoneally administered immediately after surgery. To rats in the laparotomy+solvent administration group, only the same amount of solvent was administered instead of brexanolone.
Rats in the control group and the ALLO administration group were not subjected to laparotomy, and only subjected to anesthesia with isoflurane and local infiltration anesthesia with ropivacaine in the same manner. […]
Twelve (12) hours after surgery, the hippocampus, which is considered to be strongly related to an onset of post-operative delirium, was extracted, and mRNA expression levels of IL-1β and TNFα, which are inflammatory cytokines suspected to be related to an onset mechanism of post-operative delirium, were measured by an RT-PCR method. After the trace memory conditioning test of Example 1, the hippocampus was extracted at 48 hours after the laparotomy, and expression levels of IL-1 and TNFα in the hippocampus sample were measured by an ELISA method. […]

Compound	attention (proportion of freezing behavior time, trace memory test) ([1]; FIG. 1(1))	cognitive abilities (freezing behavior, context memory test) ([1]; FIG. 1(2))	relative expression level of IL-1β mRNA in the hippocampus (IL-1β mRNA; 10 mg/kg intraperitoneally 30 minutes before anesthesia)	relative expression level of IL-1β mRNA in the hippocampus (IL-1β mRNA; 3 mg/kg orally 30 minutes before anesthesia)
CC(=O)[C@H]1CC[C@H]2[C@@H]3CC[C@H]4C[C@H](O)CC[C@]4(C)[C@H]3CC[C@]12C [brexanolone]	significantly higher	significantly higher	significantly reduce	
C[C@@]1(O)CC[C@H]2[C@H](CC[C@@H]3[C@@H]2CC[C@]2(C)[C@@H](C(=O)Cn4cc(C#N)cn4)CC[C@@H]32)C1 [zuranolone]				significantly reduce
